Where two headings read alike, the source gives them in different places. A value given as a limit tells only on which side of the number the result lay.

For experiment [1], the system named is murine macrophage. Nature of the experiment: Intracellular L. mexicana infection assay, macrophage population. It is filed as cell-based, mouse. To be noted: infected macrophages, 72 h treatment, read-out: EC50 infection assay murine macrophage. Here is the method: (§1) Approximately 10 000 murine macrophages per well were seeded on 96 well plate, and a suspension of 60 000 L. mexicana GFP-expressing promastigotes was added to each well and left to infect the mammal cells for 72 h in a cultivation medium under the conditions described in Table S2. 2-fold dilution series starting with 100 μM of either mitoDFO, DFO, or Amphotericin B in a regular growth medium were added, and cultures were incubated for further 72 h in the same conditions. Macrophage cells were washed and resuspended in growth medium and detached by pipetting, and their concentration in each well was measured on a Guava EasyCyte 8HT flow cytometer (Luminex). The GFP signal of internalized L. mexicana amastigotes in each macrophage was detected using a 488 nm excitation laser and a 525/30 nm detector. Median fluorescence graphs were plotted, and EC50 values for both macrophages and intracellular L. mexicana were calculated using Prism 8.0 (GraphPad Software).

In the next experiment the test system is C. neoformans. As to the kind of experiment: Drug sensitivity assay, C. neoformans (OD600). It is filed as cell-based, Cryptococcus neoformans. To be noted: Cryptococcus neoformans; reference compound; C. neoformans; 72 h; read-out: control EC50. Here is the method: (§2) All organisms were cultivated according to the conditions summarized in Table S2, which also includes strain specifications. Dose–response curves were obtained by their cultivation on 96 well plates in a 2-fold series dilution of the appropriate drug, in a total volume of 200 μL (with the exception of P. falciparum, where the total volume was 100 μL). Iron supplementation was achieved by mixing the compound with Fe-NTA in an equimolar ratio prior to setting up the experiment. Results were plotted and processed using Prism 8.0 (GraphPad Software). A two-tailed unpaired t-test was performed to assess the significance of the difference between mitoDFO with and without added iron. Selectivity was calculated as the ratio of the average EC50 value for human fibroblasts to the average EC50 value for the appropriate pathogen. All data were obtained from a minimum of three independent biological replicates.

Experiment [2] relates to intracellular Leishmania mexicana amastigotes. Nature of the experiment: Intracellular L. mexicana infection assay, GFP amastigotes in macrophages. It is filed as cell-based. To be noted: intracellular amastigotes, 72 h treatment, read-out: EC50 infection assay Leishmania mexicana. The method, then: as §1
For the next experiment, the system named is A. castellanii. Nature of the experiment: Drug sensitivity assay, A. castellanii (flow cytometry). To be noted: Acanthamoeba castellanii; reference compound; A. castellanii; 96 h; read-out: control EC50. Format: cell-based, Acanthamoeba castellanii. The method, then:
as §2

The test system of a further experiment is L. mexicana (amastigote). Nature of the experiment: Drug sensitivity assay, axenic L. mexicana amastigote (flow cytometry). Format: cell-based, Leishmania mexicana. Here is the method:
as §2
Background: Flow cytometry measures light scatter and fluorescence of single cells or particles in a stream.

A further experiment deals with L. major (promastigote). As to the kind of experiment: Drug sensitivity assay, L. major promastigote (flow cytometry). Format: cell-based. To be noted: Leishmania major; reference compound; L. major (promastigote); 120 h; read-out: control EC50. Here is the method: as §2
Another experiment concerns N. fowleri. As to the kind of experiment: Drug sensitivity assay, N. fowleri (flow cytometry). Format: cell-based. To be noted: Naegleria fowleri; reference compound; N. fowleri; 72 h; read-out: control EC50. Here is the method:
as §2

A further experiment concerns C. albicans. Nature of the experiment: Drug sensitivity assay, C. albicans (OD600). Format: cell-based, Candida albicans. To be noted: Candida albicans; reference compound; C. albicans; 48 h; read-out: control EC50. Here is the method:
as §2

The subject of experiment [3] is murine macrophage. Nature of the experiment: Murine macrophage axenic monoculture EC50. Format: cell-based, mouse. To be noted: axenic monoculture, read-out: EC50 axenic murine macrophage.
A further experiment concerns B. divergens. Nature of the experiment: Drug sensitivity assay, B. divergens in bovine erythrocytes (flow cytometry). Format: cell-based, Babesia divergens. To be noted: Babesia divergens, Erythrocyte; reference compound; B. divergens; 48 h; read-out: control EC50. The method, then: as §2
The subject of a further experiment is G. intestinalis. Nature of the experiment: Drug sensitivity assay, G. intestinalis (flow cytometry). Format: cell-based. To be noted: Giardia duodenalis; reference compound; G. intestinalis; 24 h; read-out: control EC50. The method, then:
as §2

The test system of the next experiment is P. falciparum. As to the kind of experiment: Drug sensitivity assay, P. falciparum (SYBR green I). Format: cell-based, Plasmodium falciparum. To be noted: Plasmodium falciparum, 48 h, read-out: control EC50. The method, then:
as §2

A further experiment deals with T. brucei 427 (BSF). Nature of the experiment: Drug sensitivity assay, T. brucei 427 bloodstream form (resazurine). It is filed as cell-based, Trypanosoma brucei. To be noted: Trypanosoma brucei. Here is the method: as §2
A further experiment deals with T. gambiense (BSF). As to the kind of experiment: Drug sensitivity assay, T. gambiense bloodstream form (resazurine). It is filed as cell-based, Trypanosoma gambiense. To be noted: Trypanosoma brucei; reference compound; T. gambiense (BSF); 72 h; read-out: control EC50. The method, then: as §2
For orientation: Alamar Blue is a resazurin reagent that responds to reducing activity.

The subject of another experiment is T. brucei STIB (BSF). Nature of the experiment: Drug sensitivity assay, T. brucei STIB bloodstream form (resazurine). To be noted: Trypanosoma brucei; reference compound; T. brucei STIB (BSF); 72 h; read-out: control EC50. It is filed as cell-based, Trypanosoma brucei. Here is the method:
as §2

Consider `C[C@@H]1[C@H](O)[C@@H](C)/C=C/C=C/C=C/C=C/C=C/C=C/C=C/[C@H](O[C@@H]2O[C@H](C)[C@@H](O)[C@H](N)[C@@H]2O)C[C@@H]2O[C@](O)(C[C@@H](O)C[C@@H](O)[C@H](O)CC[C@@H](O)C[C@@H](O)CC(=O)O[C@H]1C)C[C@H](O)[C@H]2C(=O)O` [AmpB, amphotericin B, reference compound], for which the concentration giving a half-maximal response (EC50) with murine macrophage [1] (Mus musculus, Macrophage) was found to be 29.1 ± 5.91 µM; in the experiment on C. neoformans, 200 ± 100 nM; in [2] (Leishmania mexicana, Macrophage), 3770 ± 400 nM; with A. castellanii, 8.1 ± 1.6 µM; in the experiment on L. mexicana (amastigote) (Leishmania mexicana, axenic monoculture, read-out: EC50 axenic Leishmania mexicana), 330 ± 80 nM; with L. mexicana (amastigote) (Leishmania mexicana, reference compound, L. mexicana (amastigote), 120 h, read-out: control EC50), 320 ± 35 nM. For the same compound, the EC50 is 24 ± 8 nM in the experiment with L. major (promastigote); 69 ± 9 nM in the experiment on N. fowleri; 1500 ± 100 nM in the experiment on C. albicans; more than 25000 nM in the experiment on murine macrophage [3] (Mus musculus, Macrophage).
Turning to `CN(C)CCOc1ccc(/C(=C(/CCCCCCCCCC[P+](c2ccccc2)(c2ccccc2)c2ccccc2)c2ccccc2)c2ccccc2)cc1` [MitoTam], the EC50 in the experiment with murine macrophage [1] was 0.26 µM; in experiment [2], approximately 100 nM; with L. mexicana (amastigote) (axenic monoculture, read-out: EC50 axenic Leishmania mexicana) it was 350 nM; in the experiment on murine macrophage [3] it was 390 nM.
In the case of `O=C1C(O)=C([C@H]2CC[C@H](c3ccc(Cl)cc3)CC2)C(=O)c2ccccc21` [atovaquone, reference compound], the EC50 with B. divergens came out at 8 ± 1 nM.
In the case of `O=C(Cn1ccnc1[N+](=O)[O-])NCc1ccccc1` [benznidazole], in the experiment on G. intestinalis, the EC50 was determined as 2600 ± 1400 nM.
In the case of `CCN(CC)CCCC(C)Nc1ccnc2cc(Cl)ccc12` (stereo not drawn) [chloroquine, reference compound], the EC50 in the experiment on P. falciparum worked out at 15 ± 1 nM.
For the compound `CSc1ccc(OCc2ncc([N+](=O)[O-])n2C)cc1` [fexinidazole], in the experiment with T. brucei 427 (BSF) (T. brucei 427, comparison drug in text, read-out: EC50), the EC50 came to 4840 nM.
For `N=C(N)c1ccc(OCCCCCOc2ccc(C(=N)N)cc2)cc1` [pentamidine], the EC50 was found to be 2 ± 0.5 nM in the experiment with T. gambiense (BSF); 7 ± 1 nM in the experiment with T. brucei 427 (BSF) (reference compound, T. brucei 427 (BSF), 72 h, read-out: control EC50); 1 ± 0.4 nM in the experiment with T. brucei STIB (BSF).

A word on the EC50: it is the concentration giving half of the maximal effect.

(Values after publication PMC10862539, “Chelation of Mitochondrial Iron as an Antiparasitic Strategy” (ACS Infectious Diseases, 2024).)
